Source: patent US6458748B1, “Di- or tri-fluoromethanesulfonyl anilide derivatives, process for the preparation of them and herbicides containing them as the active ingredient” (Ihara Chemical Industry Co., Ltd., priority 1998, dated 2002)

How the values were obtained:
[1] = system: Echinochloa oryzicola vasing.; assay: Test 1 paddy pot herbicidal effect, water surface application; assay type: in vivo; details: applied day after sowing, evaluated 28 days later
Text: (§1) Standard of herbicidal effect (level of suppression of development and growth) […] Herbicidal effect of 90% or more, injury to paddy rice […] Herbicidal effect of 70% or more to less than 90%, injury to paddy rice […] 2: […]

[2] = system: Monochoria vaginalis (Burm. f.) Presl var. plantaginea (Roxb.) Solms-Laub.; assay: as above; assay type: in vivo; details: applied day after sowing, evaluated 28 days later
Text: as §1

[3] = system: Echinochloa oryzicola vasing.; assay: Test 3 herbicidal effect, application before germination or at 3-leaf stage; details: 28th day from application
Sagittaria pygmaea Miq. = assay: Test 2 paddy pot herbicidal effect with water drainage and feeding; assay type: in vivo; details: water drainage and feeding 2 cm per day for two days, 28th day
Experimental: (§2) Further, a tuber of Sagittaria pygmaea Miq. was buried. […] For two days starting from the next day, water drainage and feeding each of 2 cm in depth per day were conducted.

[4] = system: Monochoria vaginalis (Burm. f.) Presl var. plantaginea (Roxb.) Solms-Laub.; assay: as above; assay type: in vivo; details: water drainage and feeding 2 cm per day for two days, 28th day
Experimental: as §2

Structure (SMILES) | Herbicidal effect Ec ([1]; 0.4 g/10 ares) | Herbicidal effect Ec ([1]; 1.6 g/10 ares) | Herbicidal effect Ec ([1]; 6.3 g/10 ares) | Herbicidal effect Ec ([1]; 25.0 g/10 ares) | Herbicidal effect Mo ([2]; 0.4 g/10 ares) | Herbicidal effect Mo ([2]; 1.6 g/10 ares) | Herbicidal effect Mo ([2]; 6.3 g/10 ares) | Herbicidal effect Mo ([2]; 25.0 g/10 ares) | Herbicidal effect (Ec) Application at 3-leaf stage ([3]; 0.3 g/10 ares) | Herbicidal effect (Ec) Application before germination ([3]; 0.3 g/10 ares) | Herbicidal effect (Ec) Application at 3-leaf stage ([3]; 0.6 g/10 ares) | Herbicidal effect (Ec) Application before germination ([3]; 0.6 g/10 ares) | Herbicidal effect (Ec) Application at 3-leaf stage ([3]; 1.3 g/10 ares) | Herbicidal effect (Ec) Application before germination ([3]; 1.3 g/10 ares) | Herbicidal effect (Ec) Application at 3-leaf stage ([3]; 2.5 g/10 ares) | Herbicidal effect (Ec) Application before germination ([3]; 2.5 g/10 ares) | Herbicidal effect (Ec) Application at 3-leaf stage ([3]; 5.0 g/10 ares) | Herbicidal effect (Ec) Application before germination ([3]; 5.0 g/10 ares) | further results
CCc1cccc(C(O)c2nc(OC)cc(OC)n2)c1NS(=O)(=O)C(F)F (centres unmarked) [Example 3, 2-[(4,6-dimethoxypyrimidine-2-yl)hydroxymethyl]-6-ethyl-N-difluoromethanesulfonyl anilide] | 4 (Herbicidal effect of 70% or more to less than 90%, injury to paddy rice) | 5 (Herbicidal effect of 90% or more, injury to paddy rice) | 5 (Herbicidal effect of 90% or more, injury to paddy rice) | 5 (Herbicidal effect of 90% or more, injury to paddy rice) | 5 (Herbicidal effect of 90% or more, injury to paddy rice) | 5 (Herbicidal effect of 90% or more, injury to paddy rice) | 5 (Herbicidal effect of 90% or more, injury to paddy rice) | 5 (Herbicidal effect of 90% or more, injury to paddy rice) | 2 (Herbicidal effect of 30% or more to less than 50%, injury to paddy rice) | 4 (Herbicidal effect of 70% or more to less than 90%, injury to paddy rice) | 4 (Herbicidal effect of 70% or more to less than 90%, injury to paddy rice) | 5 (Herbicidal effect of 90% or more, injury to paddy rice) | 5 (Herbicidal effect of 90% or more, injury to paddy rice) | 5 (Herbicidal effect of 90% or more, injury to paddy rice) | 5 (Herbicidal effect of 90% or more, injury to paddy rice) | 5 (Herbicidal effect of 90% or more, injury to paddy rice) | 5 (Herbicidal effect of 90% or more, injury to paddy rice) | 5 (Herbicidal effect of 90% or more, injury to paddy rice) | –
COCc1cccc(C(O)c2nc(OC)cc(OC)n2)c1NS(=O)(=O)C(F)F (centres unmarked) [Example 2, 2-[(4,6-dimethoxypyrimidine-2-yl)hydroxymethyl]-6-methoxymethyl-N-difluoromethanesulfonyl anilide] | 4 (Herbicidal effect of 70% or more to less than 90%, injury to paddy rice) | 5 (Herbicidal effect of 90% or more, injury to paddy rice) | 5 (Herbicidal effect of 90% or more, injury to paddy rice) | 5 (Herbicidal effect of 90% or more, injury to paddy rice) | 5 (Herbicidal effect of 90% or more, injury to paddy rice) | 5 (Herbicidal effect of 90% or more, injury to paddy rice) | 5 (Herbicidal effect of 90% or more, injury to paddy rice) | 5 (Herbicidal effect of 90% or more, injury to paddy rice) | 3 (Herbicidal effect of 50% or more to less than 70%, injury to paddy rice) | 4 (Herbicidal effect of 70% or more to less than 90%, injury to paddy rice) | 4 (Herbicidal effect of 70% or more to less than 90%, injury to paddy rice) | 5 (Herbicidal effect of 90% or more, injury to paddy rice) | 5 (Herbicidal effect of 90% or more, injury to paddy rice) | 5 (Herbicidal effect of 90% or more, injury to paddy rice) | 5 (Herbicidal effect of 90% or more, injury to paddy rice) | 5 (Herbicidal effect of 90% or more, injury to paddy rice) | 5 (Herbicidal effect of 90% or more, injury to paddy rice) | 5 (Herbicidal effect of 90% or more, injury to paddy rice) | –
COc1cc(OC)nc(C(O)c2ccccc2NS(=O)(=O)C(F)F)n1 (centres unmarked) [Example 1, 2-[(4,6-dimethoxypyrimidine-2-yl)hydroxymethyl]-N-difluoromethanesulfonyl anilide] | 1 (Herbicidal effect of 10% or more to less than 30%, injury to paddy rice) | 3 (Herbicidal effect of 50% or more to less than 70%, injury to paddy rice) | 4 (Herbicidal effect of 70% or more to less than 90%, injury to paddy rice) | 5 (Herbicidal effect of 90% or more, injury to paddy rice) | 5 (Herbicidal effect of 90% or more, injury to paddy rice) | 5 (Herbicidal effect of 90% or more, injury to paddy rice) | 5 (Herbicidal effect of 90% or more, injury to paddy rice) | 5 (Herbicidal effect of 90% or more, injury to paddy rice) | 0 (Herbicidal effect of less than 10%, injury to paddy rice) | 1 (Herbicidal effect of 10% or more to less than 30%, injury to paddy rice) | 1 (Herbicidal effect of 10% or more to less than 30%, injury to paddy rice) | 2 (Herbicidal effect of 30% or more to less than 50%, injury to paddy rice) | 2 (Herbicidal effect of 30% or more to less than 50%, injury to paddy rice) | 3 (Herbicidal effect of 50% or more to less than 70%, injury to paddy rice) | 4 (Herbicidal effect of 70% or more to less than 90%, injury to paddy rice) | 5 (Herbicidal effect of 90% or more, injury to paddy rice) | 5 (Herbicidal effect of 90% or more, injury to paddy rice) | 5 (Herbicidal effect of 90% or more, injury to paddy rice) | Herbicidal effect Sc (Sagittaria pygmaea Miq.; 0.6 g/10 ares): 2 (Herbicidal effect of 30% or more to less than 50%, injury to paddy rice); Herbicidal effect Sc (Sagittaria pygmaea Miq.; 1.3 g/10 ares): 5 (Herbicidal effect of 90% or more, injury to paddy rice); Herbicidal effect Sc (Sagittaria pygmaea Miq.; 2.5 g/10 ares): 5 (Herbicidal effect of 90% or more, injury to paddy rice); Herbicidal effect Sc (Sagittaria pygmaea Miq.; 5.0 g/10 ares): 5 (Herbicidal effect of 90% or more, injury to paddy rice); Herbicidal effect Ec ([4]; 0.6 g/10 ares): 2 (Herbicidal effect of 30% or more to less than 50%, injury to paddy rice); Herbicidal effect Ec ([4]; 1.3 g/10 ares): 4 (Herbicidal effect of 70% or more to less than 90%, injury to paddy rice); Herbicidal effect Ec ([4]; 2.5 g/10 ares): 5 (Herbicidal effect of 90% or more, injury to paddy rice); Herbicidal effect Ec ([4]; 5.0 g/10 ares): 5 (Herbicidal effect of 90% or more, injury to paddy rice)
